The values that follow come from BindingDB's records for doi:10.1016/j.bmcl.2006.09.026 (Mediquest Therapeutics, 2006).

SMILES strings stand for the structures.

One may read the IC50 as the midpoint of a concentration-inhibition curve. Low readings indicate greater potency, high ones weaker potency.

Sequence of Transcription factor p65 (Q04206 whole entry): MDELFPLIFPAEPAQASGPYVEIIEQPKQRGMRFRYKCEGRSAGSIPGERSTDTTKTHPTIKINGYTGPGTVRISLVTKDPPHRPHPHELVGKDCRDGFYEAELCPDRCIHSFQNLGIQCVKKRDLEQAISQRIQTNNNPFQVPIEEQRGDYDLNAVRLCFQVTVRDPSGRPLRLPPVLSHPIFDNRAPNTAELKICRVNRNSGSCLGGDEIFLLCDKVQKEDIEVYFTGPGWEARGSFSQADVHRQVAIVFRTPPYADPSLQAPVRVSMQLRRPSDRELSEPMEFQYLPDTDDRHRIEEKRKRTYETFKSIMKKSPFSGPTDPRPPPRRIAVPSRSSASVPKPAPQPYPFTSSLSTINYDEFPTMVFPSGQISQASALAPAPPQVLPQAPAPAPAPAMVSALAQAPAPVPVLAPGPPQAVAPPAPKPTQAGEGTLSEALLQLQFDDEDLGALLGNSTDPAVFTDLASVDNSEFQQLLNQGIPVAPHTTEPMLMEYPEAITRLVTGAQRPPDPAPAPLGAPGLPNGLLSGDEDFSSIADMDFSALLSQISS

This test concerns the target Transcription factor p65 (Human, UniProt Q04206). In words: Inhibition of NF-kappaB in human HEK293 cells.
With `CCCCCCCCCCCCS(=O)(=O)NCCCNCCCCNCCCN` [N-(3-(4-(3-aminopropylamino)butylamino)propyl)dodecane-1-sulfonamide], the IC50 was found to be 340 nM. This counts as sub-micromolar.

In turn, `CCCCCCCCCCCCCCCCS(=O)(=O)NCCCNCCCCNCCCN` [N-(3-(4-(3-aminopropylamino)butylamino)propyl)hexadecane-1-sulfonamide] displayed an IC50 of 230 nM.

`CCCCCCCCCCCCCCCCCCS(=O)(=O)NCCCNCCCCNCCCN` [N1-octadecanylsulfonyl-1,14-diamino-5,10-diazabutadecane] came in with an IC50 of 2100 nM.

`CCCCCCCCCCS(=O)(=O)NCCCNCCCCNCCCN` [N-(3-(4-(3-aminopropylamino)butylamino)propyl)decane-1-sulfonamide]: the IC50 was determined as 310 nM.
